From patent publication US20220282271A1, “HERBICIDE RESISTANT PLANTS AND METHODS OF MAKING AND USING” (OFFICE OF INNOVATION ADVANCEMENT AND COMMERCIALIZATION, priority 2019, published 2022)
pIC50: −log10 of the molar value.

Legend:
[1] = target: T1, recombinant wild-type E. indica PPO1 (Eleusine indica, UniProt A0A6G5XNV7); experiment: In vitro PPO enzyme activity inhibition, wild-type PPO1; assay type: biochemical
T1 sequence (A0A6G5XNV7 1-529): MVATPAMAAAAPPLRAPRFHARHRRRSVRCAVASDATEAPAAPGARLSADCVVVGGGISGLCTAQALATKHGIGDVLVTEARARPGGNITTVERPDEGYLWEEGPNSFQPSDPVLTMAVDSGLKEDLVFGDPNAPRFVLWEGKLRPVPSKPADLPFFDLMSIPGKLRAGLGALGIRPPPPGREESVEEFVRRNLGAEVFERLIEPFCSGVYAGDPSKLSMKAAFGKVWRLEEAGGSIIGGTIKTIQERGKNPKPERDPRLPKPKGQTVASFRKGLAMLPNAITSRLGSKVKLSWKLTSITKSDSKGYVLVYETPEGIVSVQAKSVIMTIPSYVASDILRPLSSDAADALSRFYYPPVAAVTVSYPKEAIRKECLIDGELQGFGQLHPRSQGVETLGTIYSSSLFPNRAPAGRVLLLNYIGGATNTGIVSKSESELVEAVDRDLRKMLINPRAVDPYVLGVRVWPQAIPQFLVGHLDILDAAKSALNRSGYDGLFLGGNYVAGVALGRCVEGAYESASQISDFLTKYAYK
Excerpt: Effects of A212T substitution were studied using the E. indica backbone. The wild-type E. indica PPO1 and the E. indica PPO1 A212T variants were synthesized de novo and subcloned into pRSetB plasmid (Invitrogen, Carlsbad, Calif.). The complete description of expression and purification of E. indica PPO1 and E. indica PPO1 A212T variant proteins were referenced to the method described for PPO2 by Rangani et al. (2019, Frontiers in Plant Sci., 10:568). […] Oxadiazon, sulfentrazone, saflufenacil and lactofen are from the class of oxadiazole, triazolinone, pyrimidinedione, and diphenyl ether, respectively. Flumioxazin and trifludimoxazin are from the same chemical family, N-phenylphthalimide. […] The assay was replicated twice.

Conyza candensis = experiment: Weed control screen: glyphosate-resistant horseweed; assay type: in vivo; conditions: 1.0 lb ai/a, applied approximately 3 weeks after emergence, relative to non-treated
Description: (§1) Herbicides were applied at a spray volume of 280 L/ha with no adjuvant added to any herbicide mixture. Weed control was rated on a 0 to 100 percent phytoxicity scale with 0 being no plant injury/phytotoxicity and 100 being complete plant dessication. Twenty-one weeds were evaluated for response to herbicides (Table 3). The weeds selected were a mixture of weeds common in agronomic and horticultural crops. Herbicide was applied to all species approximately 3 weeks after emergence. Plant phytotoxicity rated as percent control relative to the non-treated.

[2] = system: Twenty-one weeds common in agronomic and horticultural crops; experiment: Weed control screen: summary over the twenty-one weeds; assay type: in vivo
Description: as §1

[3] = highest herbicide concentration 10^−5 M

CC(C)Oc1cc(-n2nc(C(C)(C)C)oc2=O)c(Cl)cc1Cl [Oxadiazon, oxadiazon]
pIC50 [1]: 7.61 | Wild-type E. indica PPO1 % inhibition [1, 3]: >90% | inhibition at 10 µM [1, 3]: > 90% | Percent control (0 to 100) (Conyza candensis): 30% | Number of the 21 weeds evaluated controlled at a level greater than or equal to 90% ([2]; 1.0 lb ai/a): 13 weeds | Number of the 21 weeds controlled greater than or equivalent to glyphosate ([2]; 1.0 lb ai/a each): 18 weeds
